The subject of series [1] is Human embryonic kidney cells (HEK). In words: Mammalian cell viability assay (trypan blue exclusion), Example 2. It is filed as cell-based. As to conditions: 80-160 μM, 2 h at 37° C. On the procedure:
(§1) Mammalian cell viability and hemolysis assays. Human embryonic kidney cells (HEK) (ATCC CRL-1573) and LNCaP prostate cancer cells (ATCC CRL-1740) were utilized for cell viability assays. Human embryonic kidney cells were cultured in Dulbecco's Modified Eagles Medium, high glucose (Thermo Scientific, cat #SH30243.01) with 10% fetal bovine serum at 37° C. and 5% CO2. Prostate cancer cells were cultured in RPM-1640 medium (Invitrogen, cat #A10491-01) with 10% fetal bovine serum at 37° C. and 5% CO2. In both cases, assays were performed by aliquoting cells into 96 well plates at approximately 60% confluency and allowing the cells to adhere for two hours. Cells were then incubated with serial dilutions of SHP-1, or the relevant control, in the corresponding media for two hours at 37° C. Cell viability was determined by the ability of live cells to exclude trypan blue. The cells were incubated with 0.1% trypan blue for 10 minutes and examined microscopically for cytoplasmic staining. The potential for SHP-1 to induce hemolysis was assayed by monitoring hemoglobin (Hb) release from freshly collected human erythrocytes that had been washed and incubated with SHP-1 in PBS. The Hb concentration of the supernatant was determined by the absorbance at 412 nm and compared to 100% hemolysis acquired by hypotonic lysis. […]

Series [2] deals with LNCaP prostate cancer cells. The description is as above. It counts as cell-based, human. As to conditions: 80-160 μM, 2 h at 37° C. On the procedure:
as §1

For series [3] the following is noted: not told.
Protocol: Calcein release assays. […] Briefly, liposomes were diluted 1:1000 into 50 mM Tris, pH 7.0 and calcein fluorescence was monitored at 513 nm when excited at 484 nm. The percent calcein release was calculated relative to the 100% fluorescence intensity, achieved by the addition of 0.01% Triton X-100.
In series [4] the test system is plasma membrane of live BSF T. b. brucei. In words: Anisotropy assays with DPH and TMA-DPH, Example 4. It is filed as cell-based, Trypanosoma brucei brucei. As to conditions: 37° C. On the procedure: Anisotropy Assays. The plasma membrane rigidity of live T. b. brucei was determined by measuring the fluorescence depolarization of diphenyl-1,3,5-hexatriene p-toluenesulfonate (DPH) or 1-(4-trimethylammoniumphenyl)-6-diphenyl-1,3,5-hexatriene p-toluenesulfonate (TMA-DPH; Invitrogen T204). Cells were washed 3 times with and resuspended in PBS at a density of 3×10^6 cells/ml. The anisotropic probes were added to a final concentration of […] and allowed to intercalate into the cell membrane for one hour in the dark. Anisotropic values were acquired via the software function of a PerkinElmer Life Sciences LS55 spectrofluorometer. Samples were excited at 358 nm, and emission was read at 430 nm, both with 10-nm slit widths. Temperature was maintained at 37° C. by means of the PerkinElmer LS55 Biokinetics accessory. Data were corrected for light scattering with an unlabeled sample of cells, and anisotropy was calculated according to the equation r=(IVV−GIVH)/(IVV+2GIVH), where r is the anisotropy value, IVV is the emission intensity acquired with the excitation- and emission-polarizing filters set vertically, G is the instrument correction factor, and IVH is the emission intensity acquired with the excitation-polarizing filter set vertically and the emission-polarizing filter set horizontally. All assays were conducted at 37° C. […]

Series [5] relates to BSF T. b. brucei. Briefly: Trypanosome motility by video microscopy, Example 4. It counts as cell-based, Trypanosoma brucei brucei. As to conditions: 40 μM peptide, 37° C. On the procedure:
Trypanosome motility. All images and videos were acquired with an Axio Observer Z1 equipped with an AxioCam MRm controlled by AxioVision 4.6 software. Videos were acquired with live cells at a density of 1×10^7 cells/ml in HMI 9 media with 10% fetal bovine serum, incubated with 40 µM SHP-1 at 37° C. Videos were recorded at magnification 63× with 50-ms acquisition times. The motility of BSF trypanosomes was scored visually from video playback of trypanosomes scanned throughout 10 μl aliquots. Data is shown as the average of triplicate trials with standard deviations.

For series [6], the system named is BSF T. b. brucei. Briefly: Flow cytometry binding of FITC-labeled SHP. It counts as cell-based, Trypanosoma brucei brucei. As to conditions: 8 μM FITC-labeled peptide. On the procedure:
Flow Cytometry. Peptide binding to BSF T. b. brucei was monitored by flow cytometry. Binding assays were performed with 3×10^6 cells/ml in HMI 9 plus 10% fetal bovine serum at 25° C. FITC-labeled SHP-1 or SHP-3 was added to a final concentration of 8 μM and 50,000 cells were immediately counted on a CyAn ADP flow cytometer (Dako). Data were analyzed with FlowJo software (TreeStar Inc.).

Series [7] concerns BSF T. b. brucei. Briefly: Trypanosome killing assay, Example 4. It is filed as cell-based, Trypanosoma brucei brucei. As to conditions: two hour killing assay, 37° C. On the procedure: Trypanosome Killing Assays. Light microscopy based trypanosome killing assays were performed as previously described in detail (Harrington et al., 2010, J Biol Chem; 285(37):28659-66; Widener et al., 2007, PLoS Pathog; 3(9):1250-61; Shiflett et al., 2007, J Eukaryot Microbiol; 54(1):18-21; and Hajduk et al., 1989, J Biol Chem; 264(9):5210-7). Metacyclic T. b. brucei TREU 667 were obtained from dissection of the salivary glands of infected tsetse flies. Newly hatched Glossina morsitans morsitans (24-48 hours post eclosion) were fed defibrinated horse blood containing 2×10^6 ml^−1 trypanosomes and maintained at 25° C. in 75% relative humidity and fed maintenance blood meals three times per week. Following day 20-30, flies were harvested and salivary glands were dissected out and washed in HMI 9 media containing 10% fetal bovine serum. Metacyclic cells were collected via centrifugation and maintained in HMI 9 media with 10% fetal bovine serum at 37° C. in 5% CO2 until use. Killing assays were conducted with 1×10^4 cells/ml in HMI 9 media containing 10% fetal bovine serum. Trypanosoma vivax and T. congolense were grown from stabilites in donor ICR mouse (Harlan, United Kingdom). Parasites were harvested from mice by terminal exsanguination and passage of infected blood through a small anion exchange column. Cells were maintained in HMI 9 with 20% goat serum at 37° C. in 5% CO2 until use. Killing assays were performed with 1×10^7 cells/ml in HMI 9 media with either 20% goat serum, in the case of T. vivax and T congolense, and 10% fetal bovine serum, for T. b. brucei. Cells were incubated at 37° C. for 2 hours and dead parasites were scored visually. All were conducted in at least duplicate, and data points are the averages with standard deviations.

Consider 2 compounds from patent US9079977B2, “Anti-trypanosomal peptides and uses thereof” (priority 2009, dated 2015).

Where a SMILES comes first, the peptide text is derived from it.

Turning to `CC[C@H](C)[C@H](NC(=O)[C@@H](NC(=O)[C@H](C)NC(=O)CNC(=O)[C@H](CC(C)C)NC(=O)[C@H](CC(=O)O)NC(=O)[C@@H](N)CO)C(C)C)C(=O)N[C@@H](CO)C(=O)N[C@@H](CC(C)C)C(=O)N[C@@H](CC(C)C)C(=O)N[C@@H](CC(C)C)C(=O)N[C@@H](Cc1c[nH]c2ccccc12)C(=O)NCC(=O)N[C@@H](CCCNC(=N)N)C(=O)N[C@@H](CCC(N)=O)C(=O)N[C@@H](CC(C)C)C(=O)N[C@@H](Cc1ccccc1)C(=O)N[C@@H](C)C(=O)O` [SHP-1, SDLGAVISLLLWGRQLFA] (H-SDLGAVISLLLWGRQLFA-OH; N-terminus and C-terminus assumed), the “cell death of HEK cells (morphology, trypan blue exclusion)” value in series [1] is listed as “did not result in cell death”. Besides, the “cell death of LNCaP cells (morphology, trypan blue exclusion)” value in series [2] is on record as “did not result in cell death”. Moreover, in series [3], the “permeabilization of homogenous symmetric saturated PC liposomes” value is reported as “not permeabilized” and the “permeabilization of symmetric 15:0 PC or DPPC liposomes above Tm” value is “resulted in sensitivity to permeabilization”.
On to “FHQIWAALLYFYGIILNSIY (amino acid sequence of small hydrophobic peptide -3 (SHP-3)) [Small hydrophobic peptide 3, derived from an apolipoprotein]”, for which the “rigidity of the interfacial region of the plasma membrane (TMA-DPH)” value in series [4] was “increased the rigidity of the interfacial region of the plasma membrane”. In addition, the “motility phenotype (hyperactivation, constriction)” value with BSF T. b. brucei [5] was “does cause initial hyperactivation of BSF T. b. brucei, however subsequent constriction of motility does not occur”. For the same compound, the “binding to BSF T. brucei” value with BSF T. b. brucei [6] is “binding to BSF T. brucei”. The “killing of BSF T. brucei (trypanocidal activity)” value in the series with BSF T. b. brucei [7] is recorded as “no killing was seen”.
